These results are taken from US12479816B2, “20-HETE formation inhibitors” (UNIVERSITY OF PITTSBURGH—OF THE COMMONWEALTH SYSTEM OF …, priority 2019, dated 2025).

Series [1] concerns 20-HETE formation (CYP4) in RLM. Nature of the series: Inhibition of 20-HETE formation at 250 or 500 nM in RLM microsomal incubations. The series is classed as biochemical, rat. As to conditions: RLM 300 μg/ml; for RLM % inh. @ 250 nM: 250 nM compound; for RLM % inh. @ 500 nM: 500 nM compound. The method, boiled down:
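Protein 300 μg/ml (microsomes) / 25 pmol/mL (rCYP4F2); AA 100 μM; NADPH 1 mM start; KPi 0.12 M + 5 mM MgCl2; 20 min, 37° C. Read-out: 20-HETE by UPLC-MS/MS (d6 IS), % of vehicle, n=3.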

Series [2] in a line: Turbidometric solubility determination. Format: physicochemical. As to conditions: PBS with 1% DMSO, aqueous buffer, kinetic from dmso stock, room temperature. In short, it runs like this: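 Precipitation was detected as a significant rise in absorbance at 620 nm over background, and this point set the maximum solubility. Compound was tested in PBS with 1% DMSO at final concentrations from 0 to 600 μM, in triplicate, after 2 h of shaking at room temperature.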

Series [3] concerns 20-HETE formation (CYP4) in HLM. Nature of the series: IC50 determination, 20-HETE formation in HLM. The series is classed as biochemical, human. Particulars: HLM 300 μg/ml, AA 100 μM, 12 concentrations. In short, it runs like this: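 Human or rat liver microsomes (300 μg/ml) with arachidonic acid 100 μM, NADPH 1 mM, compound at 12 concentrations (0.1 nM-50 μM) in phosphate/MgCl2 buffer, 20 min at 37 °C. 20-HETE quantified by UPLC-MS/MS against d6 internal standard, normalised to vehicle; IC50 by nonlinear regression.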

Series [4] is described as follows: HLM stability determination. Format: in vitro ADME, human. As to conditions: HLM 500 μg/ml, 1 μM compound, NADPH, relative to 0 min. The protocol: HLM stability determinations shown in Table 3 were obtained as follows. Microsomal incubates contained HLM (500 μg/ml), test compounds (1 μM) and NADPH (1.3 mM) in a 1 ml total volume of microsomal incubation buffer (0.12 M potassium phosphate buffer containing 5 mM magnesium chloride). Reaction was started by adding NADPH to the incubates and was carried out at 37° C. in a shaking water bath for 60 min. At 0, 15, 30, 45, 60 min, a 50 μl aliquot of incubates was taken out and reaction was stopped by adding aliquot into 200 μl ice-cold acetonitrile. After centrifugation at 14000×g for 5 min, 200 μl supernatant was taken out for UPLC-MS/MS analysis as described above. Values at 0 min were used as corresponding control for test compounds. Varapamil, metoprolol, and warfarin, categorized as fast, moderate and slow metabolism, were used as positive control. Incubates without NADPH group served as negative control.

Read-outs that look alike come from different tables or passages of the source.

Broadly, the IC50 is the concentration that gives 50% inhibition. High values mean a need for much substance, low ones inhibition by little substance. Turning to `c1ccc(C2CCN(c3cn[nH]c3)CC2)cc1` [Compound 1, 4-Phenyl-1-(1H-pyrazol-4-yl)piperidine], in series [1], the “RLM % inh. @ 250 nM” value is recorded as 27.40%. Also, the solubility at 2 h came out at 121 µM in series [2] (OD620, read-out: Max Solub) and 0.028 mg/mL in series [2] (read-out: Solubility_ug/mL). Besides, the midpoint of inhibition in series [3], the IC50, lay at 0.19 µM. Besides, the “Stability HLM % @ 30 min” value in series [4] is 100%.

For `c1ccc(CC2CCN(c3cn[nH]c3)CC2)cc1` [Compound 3, 4-Benzyl-1-(1H-pyrazol-4-yl)piperidine], the “RLM % inh. @ 500 nM” value in series [1] is on record as 2.40%. Moreover, the solubility at 2 h turned out to be 505 µM in series [2] (OD620, read-out: Max Solub) and 0.122 mg/mL in series [2] (read-out: Solubility_ug/mL). In addition, the IC50 in series [3] stood at 0.05 µM. The “Stability HLM % @ 30 min” value in series [4] amounted to 85%.

As to `COc1ccc(C2CCN(c3ccn[nH]3)CC2)cc1` [Compound 19, 4-(4-Methoxyphenyl)-1-(1H-pyrazol-5-yl)piperidine], the “RLM % inh. @ 500 nM” value in series [1] is on record as 31.80%. Moreover, the solubility at 2 h in series [2] (OD620, read-out: Max Solub) is 106 µM; in series [2] (read-out: Solubility_ug/mL), 0.0273 mg/mL. This compound yielded an IC50 in series [3] of 0.14 µM. The “Stability HLM % @ 30 min” value in series [4] is listed as 89%.

Take `COc1ccc(C2CCN(c3cn[nH]c3)CC2)cc1` [Compound 20, 4-(4-Methoxyphenyl)-1-(1H-pyrazol-4-yl)piperidine]: in series [1], the “RLM % inh. @ 500 nM” value amounted to 25.90%. The solubility at 2 h was determined as 35 µM in series [2] (OD620, read-out: Max Solub) and 0.009 mg/mL in series [2] (read-out: Solubility_ug/mL). For the same compound, the IC50 in series [3] is 0.07 µM. Moreover, the “Stability HLM % @ 30 min” value in series [4] is 92%.

Take `CC(=O)N(C)c1ccc(C2CCN(c3cn[nH]c3)CC2)cc1` [Compound 28, N-(4-(1-(1H-Pyrazol-4-yl)piperidin-4-yl)phenyl)-N-methylacetamide]: the “RLM % inh. @ 500 nM” value in series [1] is 52.00%. Also, the solubility at 2 h in series [2] (OD620, read-out: Max Solub) was more than 600 µM; in series [2] (read-out: Solubility_ug/mL) it was 0.179 mg/mL. Moreover, in series [3], the IC50 was found to be 0.1 µM.

In the case of `Cc1cccc(C2CCN(c3cn[nH]c3)CC2)c1` [Compound 34, 1-(1H-Pyrazol-4-yl)-4-(m-tolyl)piperidine], the “RLM % inh. @ 500 nM” value in series [1] is 44.00%. For the same compound, the solubility at 2 h was more than 600 µM in series [2] (OD620, read-out: Max Solub) and 0.145 mg/mL in series [2] (read-out: Solubility_ug/mL). In series [3], this compound gave an IC50 of 0.11 µM.

On to `c1ccc(C2CCN(c3ccn[nH]3)CC2)cc1` [Compound 54, 4-Phenyl-1-(1H-pyrazol-5-yl)piperidine], for which, in series [1], the “RLM % inh. @ 250 nM” value was 12.00%. Moreover, the solubility at 2 h in series [2] (OD620, read-out: Max Solub) is more than 600 µM; in series [2] (read-out: Solubility_ug/mL), 0.137 mg/mL. This compound came in with an IC50 in series [3] of 0.44 µM. In addition, the “Stability HLM % @ 30 min” value in series [4] is reported as 91%.

As for `O=C1CCCN1Cc1ccc(C2CCN(c3cn[nH]c3)CC2)cc1` [Compound 83, 1-(4-(1-(1H-Pyrazol-4-yl)piperidin-4-yl)benzyl)pyrrolidin-2-one], in series [1], the “RLM % inh. @ 500 nM” value came out at 49.60%. In series [2] (OD620, read-out: Max Solub), the solubility at 2 h is more than 600 µM. This compound also displayed an IC50 in series [3] of 0.0542 µM. In addition, the “Stability HLM % @ 30 min” value in series [4] is 91%.

Turning to `Clc1ccc(CC2CCN(c3cn[nH]c3)CC2)cc1` [Compound 93, 4-(4-Chlorobenzyl)-1-(1H-pyrazol-4-yl)piperidine], the “RLM % inh. @ 500 nM” value in series [1] is reported as 64.30%. In addition, the solubility at 2 h in series [2] (OD620, read-out: Max Solub) stood at 117 µM. In addition, in series [3], the IC50 is 0.017 µM. For the same compound, the “Stability HLM % @ 30 min” value in series [4] amounted to 85%.

With `O=C1CCCN1c1ccc(C2CCN(c3cn[nH]c3)CC2)cc1` [Compound 100, 1-(4-(1-(1H-Pyrazol-4-yl)piperidin-4-yl)phenyl)pyrrolidin-2-one], in series [1], the “RLM % inh. @ 500 nM” value amounted to 42.90%. Besides, the solubility at 2 h in series [2] (OD620, read-out: Max Solub) was 74 µM. In series [3], half-maximal inhibition (IC50) was put at 0.054 µM. For the same compound, the “Stability HLM % @ 30 min” value in series [4] stood at 95%.
